Assay results reported in PubChem BioAssay (NCI).
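Protocol summary: plate cells (96-well), add compound at 5 concentrations, incubate 48 h, interpolate endpoints linearly. Definition used: TGI = concentration required for complete inhibition of growth.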

Key:
Test in all cases: NCI-60 cell line screen, 48 h
M14 melanoma = system: M14 melanoma
SF-268 CNS = system: SF-268 CNS
HT29 colon = system: HT29 colon
ACHN renal = system: ACHN renal
SK-OV-3 ovarian = system: SK-OV-3 ovarian
U251 CNS = system: U251 CNS
A549 NSCLC = system: A549 NSCLC
MCF7 breast = system: MCF7 breast
IGROV1 ovarian = system: IGROV1 ovarian
OVCAR-5 ovarian = system: OVCAR-5 ovarian
NCI-H23 lung = system: NCI-H23 lung
SN12C renal = system: SN12C renal

Compound	TGI (M14 melanoma)	TGI (SF-268 CNS)	TGI (HT29 colon)	TGI (ACHN renal)	TGI (SK-OV-3 ovarian)	TGI (U251 CNS)	TGI (A549 NSCLC)	TGI (MCF7 breast)	TGI (IGROV1 ovarian)	TGI (OVCAR-5 ovarian)	TGI (NCI-H23 lung)	TGI (SN12C renal)
CC(=O)c1cc(C)n2c1CS[C@@H]2c1ccccc1	> 100 µM	> 100 µM	> 100 µM	> 100 µM	> 100 µM	92.7 µM	> 100 µM	> 100 µM	> 100 µM	> 100 µM	> 100 µM	> 100 µM
COc1cc2c(cc1OC)C(=O)N(NC1=NCCN1)C2=O	> 100 µM	> 100 µM	> 100 µM	> 100 µM	> 100 µM	> 100 µM	> 100 µM	> 100 µM	> 100 µM	> 100 µM	> 100 µM	> 100 µM
C=CCN1CN(c2ccccc2)C2(CCN(CCCC3(c4ccc(F)cc4)OCCO3)CC2)C1=O	30.6 µM	38.5 µM	20.4 µM	48.3 µM	43.3 µM	29.4 µM	42.9 µM	30.5 µM	39.4 µM	23.8 µM	30 µM	32 µM
O=c1[nH]c2c(c(=O)[nH]1)SSC2	4.91 µM	13.6 µM	40 µM	> 67.5 µM	50.9 µM	30.1 µM	> 63.5 µM	> 54.3 µM	56.8 µM	32.4 µM	26.9 µM	7.95 µM
CC(=O)O[C@@H](C1C[C@@H](C)[C@H]2[C@@](O)(O1)[C@H](O)[C@@]1(C)C3=CC[C@H]4C(C)(C)[C@@H](OC5OCC(O)C(O)C5O)CC[C@@]45C[C@@]35CC[C@]21C)C(C)(C)O (some centres undefined)	> 100 µM	> 100 µM	> 100 µM	47.2 µM	63.9 µM	36 µM	> 100 µM	50.3 µM	> 100 µM	56.6 µM	49 µM	54.8 µM
CCOP(=O)(OCC)/C(C#N)=C/c1c[nH]c2ccccc12	> 100 µM	> 100 µM	> 100 µM	> 100 µM	> 100 µM	> 100 µM	> 100 µM	> 100 µM	> 100 µM	> 100 µM	> 100 µM	> 100 µM
CC#CC(O)(C(=O)OC1CC2CCC(C1)N2C)C1CCCC1 (centres undefined)	> 100 µM	> 100 µM	> 100 µM	> 100 µM	> 100 µM	> 100 µM	> 100 µM	> 100 µM	> 100 µM	> 100 µM	> 100 µM	> 100 µM
